Measurements taken from patent US20130252930A1 (BIOMARIN PHARMACEUTICAL INC., priority 2010, published 2013).
Like-named read-outs stand apart in the source and are kept apart here.

What was measured:
[1] = biological target: T1, CYP17 (human testicular microsome) (Homo sapiens, UniProt P05093); test: CYP17 enzymatic assay (IC50) (Biological Example 4); assay type: biochemical; conditions: human testicular microsome
T1 construct: using microsomal fraction from human testis (Celsis Cat #S00110) as the enzyme source; tissue Celsis S00110; host or cells: human testis microsomal fraction
T1 sequence (P05093 1-508): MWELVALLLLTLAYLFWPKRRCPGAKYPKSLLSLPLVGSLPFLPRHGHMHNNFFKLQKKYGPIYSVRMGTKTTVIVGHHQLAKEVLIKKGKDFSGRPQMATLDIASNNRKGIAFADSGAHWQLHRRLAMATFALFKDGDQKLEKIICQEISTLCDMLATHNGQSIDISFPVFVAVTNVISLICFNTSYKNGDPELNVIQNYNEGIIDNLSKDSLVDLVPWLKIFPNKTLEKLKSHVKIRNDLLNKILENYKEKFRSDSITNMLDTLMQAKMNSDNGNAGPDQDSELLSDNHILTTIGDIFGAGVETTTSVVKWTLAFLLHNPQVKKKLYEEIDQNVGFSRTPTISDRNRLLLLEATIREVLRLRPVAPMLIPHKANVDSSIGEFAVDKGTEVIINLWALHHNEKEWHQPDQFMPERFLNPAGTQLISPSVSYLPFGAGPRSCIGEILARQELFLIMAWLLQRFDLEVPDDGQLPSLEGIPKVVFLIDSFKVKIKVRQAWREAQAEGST

[2] = tested on: rat Cyp11B enzyme (rat adrenal mitochondria); test: CYP11B enzymatic assay (% inhibition at 100 nM) (Biological Example 9); assay type: biochemical; conditions: for CYP11B enzymatic assay % inhibition at 100 nM (Biological Example No. 9): compound at 100 nM
Experimental: Adrenals excised from Sprague Dawley rats were homogenized, and mitochondria fraction were prepared by a series of centrifugation as described in Shuji Ohno, et al. J. of Steroid Biochemistry & Molecular Biology 2002, 80, 355-363. Prepared mitochondria protein was washed and resuspended in Buffer B (0.21 M mannitol, 70 mM sucrose, 5 mM MgCl2, 0.5 mM CaCl2, 20 mM Tris-HCl (pH 7.4) and 1 mM DTT, […]). The protein concentration was determined by BCA assay and stored as 10 μL aliquots at −80° C.
The rat Cyp11B enzyme assay was performed in 96-well plates. Typical assays were carried out in total 50 μL volume that included test compounds at 100 nM concentration, 1× Buffer B, 0.5 mM NADPH, 0.1 μM 11-deoxycortisol, and 2 μL of prepared rat adrenal mitochondria (added last). Reaction without test compound served as positive control and reaction without NADPH served as negative control. Reactions were allowed to incubate at 37° C. for 60 min with gentle shaking. The reaction was stopped by directly applying the enzymatic reaction mixture (1:5 diluted in ELISA assay buffer) to ELISA plate for evaluation of cortisol concentration according to manufacturer's protocol (Assay Design).
The mean absorbance value for each sample was used to determine the corresponding concentration from the standard curve. Amount of cortisol in the negative control (reaction that dis not include NADPH) was subtracted from total cortisol. Percent inhibition (inhibition %) of the compound was calculated using normalized cortisol concentration based on following formula: 100−([Cortisol] of compound/[Cortisol] of positive control *100).

[3] = Human liver microsome stability assay (Biological Example 8b); conditions: liver microsomes, pH 7.4
[4] = biological target: T1, CYP17 (human testicular microsome); test: CYP17 enzymatic assay (% inhibition at 1 nM) (Biological Example 12); assay type: biochemical
[5] = biological target: T1, CYP17 (human testicular microsome); test: CYP17 enzymatic assay (% inhibition at 10 nM), version 1 (Biological Example 5); assay type: biochemical
CYP17 (H295R cells) = biological target: T2, CYP17 (H295R cells) (Homo sapiens, UniProt P05093); test: CYP17 cellular assay (IC50), testosterone in H295R cells (Biological Example 7); assay type: cell-based; conditions: H295R cells
T2 construct: endogenous in cells; host or cells: H295R cells
T2 sequence (P05093 1-508): T1 sequence (P05093 1-508)
How it was run: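 Testosterone in the medium was quantified by ELISA after 24 h at 37 °C with test compound (final 100, 10, 1, 0.1 nM; serum-free DMEM/F-12, ITS+, 0.1% methanol). The H295R cells had been seeded and grown 24 h beforehand; vehicle wells served as control.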

[6] = biological target: T3, Cyp21 enzyme (Human HEK 293-Cyp21 stable transfected cells) (Homo sapiens, UniProt P08686); test: CYP21-HEK293 enzymatic assay (IC50) (Biological Example 11); assay type: cell-based; conditions: HEK 293-Cyp21 cells; read-out: CYP21-HEK293 enzymatic assay IC50 (Biological Example No. 11)
T3 construct: expressed in transfected cells
T3 sequence (P08686 1-495): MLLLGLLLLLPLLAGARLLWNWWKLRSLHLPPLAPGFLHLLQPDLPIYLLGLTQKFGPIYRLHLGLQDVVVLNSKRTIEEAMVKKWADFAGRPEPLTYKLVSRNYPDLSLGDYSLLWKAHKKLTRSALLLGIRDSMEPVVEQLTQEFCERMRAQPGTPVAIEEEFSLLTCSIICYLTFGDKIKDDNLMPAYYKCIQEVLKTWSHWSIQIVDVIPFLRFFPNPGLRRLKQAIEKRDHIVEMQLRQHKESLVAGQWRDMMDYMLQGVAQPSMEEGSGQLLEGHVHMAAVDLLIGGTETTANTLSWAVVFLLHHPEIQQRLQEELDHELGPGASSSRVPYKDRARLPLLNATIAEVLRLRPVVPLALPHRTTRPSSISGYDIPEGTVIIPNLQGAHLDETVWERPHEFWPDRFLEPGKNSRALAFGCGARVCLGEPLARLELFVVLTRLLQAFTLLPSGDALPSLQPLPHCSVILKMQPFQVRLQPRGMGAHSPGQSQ

[7] = read-out: CYP17 enzymatic assay IC50 (Biological Example No. 4)
[8] = compound at 1 nM, read-out: CYP17 enzymatic assay % inhibition at 1 nM (Biological Example No. 12)

Row | Structure (SMILES) | IC50 [1, 7] | IC50 [6] | inhibition at 0.001 µM [4, 8] | CYP11B enzymatic assay % inhibition at 100 nM (Biological Example No. 9) [2] | further results
1 | C[C@]12CC[C@H](O)CC1=CC[C@@H]1[C@@H]2CC[C@]2(C)C(c3cccnc3)=CC[C@@H]12 [C, (3S,8R,9S,10R,13S,14S)-10,13-dimethyl-17-(pyridin-3-yl)-2,3,4,7,8,9,10,11,12,13,14,15-dodecahydro-1H-cyclopenta[a]phenanthren-3-ol, reference compound] | – | – | – | – | IC50 ([1]; DHEA by ELISA, read-out: Biological Example No. 4: CYP17 enzymatic assay IC50): < 11 nM; Biological Example No. 9: CYP11B percent inhibition at 100 nM ([2]; 100 nM compound, cortisol by ELISA): T (T means the compound had a percent inhibition of less than 32% when tested at 100 nM); half-life at 1 μM [3]: 1 to 50 min; inhibition at 0.001 µM ([4]; 1 nM compound, DHEA by ELISA, read-out: Biological Example No. 12: CYP17 percent inhibition at 1 nM): > 50%; inhibition at 0.01 µM ([5]; 10 nM compound, DHEA by ELISA, read-out: Biological Example No. 5: CYP17 percent inhibition at 10 nM (version 1)): > 80%; IC50 (CYP17 (H295R cells); testosterone by ELISA, 24 hours, read-out: Biological Example No. 7: CYP17 cellular assay IC50): < 15 nM
2 | CCCC(=O)N1CCC2CC[C@@H]3[C@H](CC[C@]4(C)C(n5ccnc5)=CC[C@@H]34)[C@@]2(C)CC1 (stereo partly drawn) [Compound 434, 1-((5aS,7aS)-8-(1H-imidazol-1-yl)-5a,7a-dimethyl-1,2,5,5a,5b,6,7,7a,10,10a,10b,11,12,12a-tetradecahydrocyclopenta[5,6]naphtho[1,2-d]azepin-3(4H)-yl)butan-1-one] | < 11 nM | > 1000 nM | > 50% | T (T means the compound had a percent inhibition of less than 32% when tested at 100 nM) | –
3 | CCC(=O)N1CCC[C@@]2(C)C(CCC3C2CC[C@]2(C)C(c4cccnc4)=CCC32)C1 (stereo partly drawn) [Compound 435, 1-((5aR,7aS)-5a,7a-dimethyl-8-(pyridin-3-yl)-3,4,5,5a,5b,6,7,7a,10,10a,10b,11,12,12a-tetradecahydrocyclopenta[5,6]naphtho[2,1-c]azepin-2(1H)-yl)propan-1-one] | < 11 nM | > 1000 nM | 10 to 50% | U (U means the compound had a percent inhibition of greater than or equal to 32%) | –
4 | CCC(=O)N1CCC2CCC3C(CC[C@]4(C)C(c5cccnc5)=CCC34)[C@@]2(C)CC1 (stereo partly drawn) [Compound 436, 1-((5aS,7aS)-5a,7a-dimethyl-8-(pyridin-3-yl)-1,2,5,5a,5b,6,7,7a,10,10a,10b,11,12,12a-tetradecahydrocyclopenta[5,6]naphtho[1,2-d]azepin-3(4H)-yl)propan-1-one] | < 11 nM | > 1000 nM | 10 to 50% | T (T means the compound had a percent inhibition of less than 32% when tested at 100 nM) | –
5 | CCC(=O)N1CCC[C@@]2(C)[C@@H](CC[C@@H]3[C@@H]2CC[C@]2(C)C(n4ccnc4)=CC[C@@H]32)C1 [Compound 441, 1-((5aR,5bS,7aS,10aS,10bR,12aR)-8-(1H-imidazol-1-yl)-5a,7a-dimethyl-3,4,5,5a,5b,6,7,7a,10,10a,10b,11,12,12a-tetradecahydrocyclopenta[5,6]naphtho[2,1-c]azepin-2(1H)-yl)propan-1-one] | < 11 nM | 10 to 100 nM | 10 to 50% | U (U means the compound had a percent inhibition of greater than or equal to 32%) | –
6 | COC(=O)N1CCC[C@@]2(C)[C@@H](CC[C@@H]3[C@@H]2CC[C@]2(C)C(n4ccnc4)=CC[C@@H]32)C1 [Compound 442, (5aR,5bS,7aS,10aS,10bR,12aR)-methyl 8-(1H-imidazol-1-yl)-5a,7a-dimethyl-3,4,5,5a,5b,6,7,7a,10,10a,10b,11,12,12a-tetradecahydrocyclopenta[5,6]naphtho[2,1-c]azepine-2(1H)-carboxylate] | – | > 100 nM | 10 to 50% | U (U means the compound had a percent inhibition of greater than or equal to 32%) | –

More lines, main results first:

Row | IC50 [1, 7] | IC50 [6] | inhibition at 0.001 µM [4, 8] | Structure (SMILES) | CYP11B enzymatic assay % inhibition at 100 nM (Biological Example No. 9) [2] | further results
7 | < 11 nM | – | – | CN1C(=O)CCC[C@@]2(C)C1=CCC1C2CC[C@]2(C)C(c3cccnc3)=CCC12 (stereo partly drawn) [Compound 180, (5aR,7aS)-1,5a,7a-trimethyl-8-(pyridin-3-yl)-3,4,5,5a,5b,6,7,7a,10,10a,10b,11-dodecahydrocyclopenta[5,6]naphtho[2,1-b]azepin-2(1H)-one] | U (U means the compound had a percent inhibition of greater than or equal to 32%) | half-life at 1 μM [3]: 1 to 50 min; inhibition at 0.01 µM ([5]; compound at 10 nM, read-out: CYP17 enzymatic assay % inhibition at 10 nM (Biological Example No. 5)): > 80%
8 | – | – | 10 to 50% | Cc1ccncc1C1=CCC2C3CN(C)C4=CC(=O)CC[C@]4(C)C3CC[C@]12C (stereo partly drawn) [Compound 444, (9aR,11aS)-5,9a,11a-trimethyl-1-(4-methylpyridin-3-yl)-3b,4,5,8,9,9a,9b,10,11,11a-decahydro-3H-cyclopenta[i]phenanthridin-7(3aH)-one] | U (U means the compound had a percent inhibition of greater than or equal to 32%) | IC50 (CYP17 (H295R cells); testosterone, read-out: CYP17 cellular assay IC50 (Biological Example No. 7)): < 15 nM
